Data from ChEMBL document CHEMBL1201862, “PubChem BioAssay data set” (2004).
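How tested: cells in 96-well plates exposed to compound for 48 hours at five concentrations. GI50 marks 50% less growth.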 The source made the active and inactive calls. Rule as the data show it: active = GI50 up to about 1.1 µM and inactive = higher.

Experiments:
Assay in all cases: NCI-60 cell line screen, 48 h
786-0 = system: 786-0
A498 = system: A498
A549 = system: A549
ACHN = system: ACHN
CAKI-1 = system: CAKI-1
CCRF-CEM = system: CCRF-CEM
COLO 205 = system: COLO 205
DLD-1 = system: DLD-1
DMS-114 = system: DMS-114
DMS-273 = system: DMS-273
EKVX = system: EKVX
HCC 2998 = system: HCC 2998
HCT-116 = system: HCT-116
HCT-15 = system: HCT-15
HL-60 = system: HL-60
HOP-18 = system: HOP-18
HOP-62 = system: HOP-62
HOP-92 = system: HOP-92
HT-29 = system: HT-29
IGROV-1 = system: IGROV-1
K562 = system: K562
KM-20L2 = system: KM-20L2
KM12 = system: KM12
LOX IMVI = system: LOX IMVI
LXFL 529 = system: LXFL 529
M14 = system: M14
M19-MEL = system: M19-MEL
MOLT-4 = system: MOLT-4
Malme-3M = system: Malme-3M
NCI-H226 = system: NCI-H226
NCI-H23 = system: NCI-H23
NCI-H460 = system: NCI-H460
NCI-H522 = system: NCI-H522
OVCAR-3 = system: OVCAR-3
OVCAR-4 = system: OVCAR-4
OVCAR-5 = system: OVCAR-5
OVCAR-8 = system: OVCAR-8
RPMI-8226 = system: RPMI-8226
RXF 393 = system: RXF 393
SF-268 = system: SF-268
SF-295 = system: SF-295
SF-539 = system: SF-539
SK-MEL-28 = system: SK-MEL-28
SK-MEL-2 = system: SK-MEL-2
SK-MEL-5 = system: SK-MEL-5
SK-OV-3 = system: SK-OV-3
SN12C = system: SN12C
SNB-19 = system: SNB-19
SNB-75 = system: SNB-75
SNB-78 = system: SNB-78
SR = system: SR
SW-620 = system: SW-620
TK-10 = system: TK-10
U-251 = system: U-251
UACC-257 = system: UACC-257
UACC-62 = system: UACC-62
UO-31 = system: UO-31
XF498 = system: XF498

Measured: GI50

Cc1cc(S(=O)(=O)O)c(NC(=O)C(=O)C2C=CCS2(=O)=O)cc1Cl (stereo not drawn)
inactive: 786-0 > 100 µM | A498 > 100 µM | A549 > 100 µM | ACHN > 100 µM | CAKI-1 > 100 µM | CCRF-CEM > 100 µM | COLO 205 > 100 µM | DLD-1 > 100 µM | DMS-114 > 100 µM | DMS-273 > 100 µM | EKVX > 100 µM | HCC 2998 > 100 µM | HCT-116 > 100 µM | HL-60 > 100 µM | HOP-18 > 100 µM | HOP-62 > 100 µM | HOP-92 > 100 µM | HT-29 > 100 µM | IGROV-1 > 100 µM | K562 > 100 µM | KM-20L2 > 100 µM | KM12 > 100 µM | LOX IMVI > 100 µM | LXFL 529 > 100 µM | M14 > 100 µM | M19-MEL > 100 µM | MOLT-4 > 100 µM | Malme-3M > 100 µM | NCI-H226 > 100 µM | NCI-H23 > 100 µM | NCI-H460 > 100 µM | NCI-H522 > 100 µM | OVCAR-3 > 100 µM | OVCAR-4 > 100 µM | OVCAR-5 > 100 µM | OVCAR-8 > 100 µM | RPMI-8226 > 100 µM | RXF 393 > 100 µM | SF-268 > 100 µM | SF-295 > 100 µM | SF-539 > 100 µM | SK-MEL-28 > 100 µM | SK-MEL-2 > 100 µM | SK-MEL-5 > 100 µM | SK-OV-3 > 100 µM | SN12C > 100 µM | SNB-19 > 100 µM | SNB-75 > 100 µM | SNB-78 > 100 µM | SR > 100 µM | SW-620 > 100 µM | TK-10 > 100 µM | U-251 > 100 µM | UACC-257 > 100 µM | UACC-62 > 100 µM | UO-31 > 100 µM | XF498 > 100 µM
> 100 µM: HCT-15
